US12239643B2, “Therapeutic agent for inflammatory diseases, autoimmune diseases, fibrotic diseases, and cancer diseases” (MEIJI SEIKA PHARMA CO., LTD., priority 2018, dated 2025)

How the values were obtained:
Type in all cases: cell-based
IL-17A [1] = test: Cytokine suppression using human peripheral blood mononuclear cells: IL-17A; conditions: human PBMC, concanavalin A 20 μg/mL; read-out: IL-17A Inhibitory Activity, Human PBMC (Test Example 4)
Procedure: (§1) First, peripheral blood mononuclear cells (PBMC) were separated from whole blood by specific gravity centrifugation. Then, the isolated peripheral blood mononuclear cells were added to RPMI-1640 medium (containing 10% fetal bovine serum, penicillin, streptomycin, L-glutamine, and 2-mercaptoethanol), and cultured in a 96-well plate at 37° C. under 5% CO2 for 0 to 1 hour. The test compound dissolved in dimethyl sulfoxide was added to each well, followed by further culture at 37° C. under 5% CO2 for 1 hour. A medium containing only dimethyl sulfoxide instead of the test compound was added to the control well. […]
(§2) The measurement results obtained by measuring the TNFα inhibitory activity and IL-5 inhibitory activity (50% inhibitory concentration) of the test compounds by the above method were evaluated in accordance with the following evaluated basis; A: less than 10 nM, B: 10 nM or more and less than 100 nM, and C: 100 nM or more. In addition, the measurement results obtained by measuring the IL-17A inhibitory activity, IL-23 inhibitory activity, IL-4 inhibitory activity, and IL-13 inhibitory activity (50% inhibitory concentration) of the test compounds were evaluated in accordance with the following evaluated basis; A: less than 500 nM, B: 500 nM or more and less than 5000 nM, and C: 5000 nM or more.

IL-13 [2] = test: Cytokine suppression using human peripheral blood mononuclear cells: IL-13; conditions: human PBMC, CD3 antibody and CD28 antibody; read-out: IL-13 Inhibitory Activity, Human PBMC (Test Example 4)
Procedure: as §1, §2

TNFα = test: Cytokine suppression using human T cells: TNFα; conditions: T-cell; human CD3-positive T cells, CD3 antibody, about 18 hours; read-out: TNFα Inhibitory Activity, Human T-Cell (Test Example 5)
Procedure: (§3) First, CD3-positive T cells were separated from whole blood by a magnetic bead method using an EasySep cell separation kit. Separated T cells suspended in RPMI-1640 medium were seeded on a 96-well plate previously coated with CD3 antibody (final concentration 3 μg/mL). Further, CD28 antibody (final concentration 5 ng/mL) was added as an IL-5 production stimulus and an IL-13 production stimulus. A test compound dissolved in dimethyl sulfoxide was added to each well, followed by culture at 37° C. under 5% CO2. The culture was carried out for about 18 hours for the evaluation of the amount of TNFα, and for about 48 hours for the evaluation of the amounts of IL-17A, IL-5, and IL-13. […]
as §2, with “TNFα” for “TNFα inhibitory activity and IL-5”, “IL-5” for “IL-23 inhibitory activity, IL-4”

IL-17A [3] = test: Cytokine suppression using human T cells: IL-17A; conditions: T-cell; human CD3-positive T cells, CD3 antibody, about 48 hours; read-out: IL-17A Inhibitory Activity, Human T-Cell (Test Example 5)
Procedure: as §3
as §2, with “TNFα” for “TNFα inhibitory activity and IL-5”, “IL-5” for “IL-23 inhibitory activity, IL-4”

IL-13 [4] = test: Cytokine suppression using human T cells: IL-13; conditions: T-cell; human CD3-positive T cells, CD3 and CD28 antibody, about 48 hours; read-out: IL-13 Inhibitory Activity, Human T-Cell (Test Example 5)
Procedure: as §3
as §2, with “TNFα” for “TNFα inhibitory activity and IL-5”, “IL-5” for “IL-23 inhibitory activity, IL-4”

[5] = tested on: CEM-C1 (blood cancer (leukemia)); test: Antitumor activity: growth inhibition of CEM-C1; conditions: 120 h; CEM-C1, culturing for 5 days; read-out: 50% growth inhibitory concentration
Procedure: (§4) As antitumor activity, 50% growth inhibitory concentration of various cancer cells (CEM-C1 (blood cancer (leukemia)), SU-DHL-4 (blood cancer (lymphoma)), A549 (lung cancer), HCT-116 (colorectal cancer), and Daoy (brain tumor)) was calculated as follows. First, each of the above cancer cells was seeded on a 384-well plate and cultured overnight at 37° C. under 5% CO2. After that, the test compound was added at various concentrations on the next day, and each number of cells was measured after culturing for 5 days. The 50% growth inhibitory concentration was defined as the test compound concentration at which the number of cells measured is an intermediate value between the number of cells after culture for 5 days under the same conditions without the addition of the test compound and the number of cells at the time of seeding (before the start of culture). The measurement results obtained by measuring the 50% growth inhibitory concentration of the test compound by the above method were evaluated in accordance with the following evaluated basis; A: less than 10 μM, B: 10 μM or more and less than 50 μM, and C: 50 μM or more. As a result of using apremilast as the test compound, the evaluation was C in all cancer cells. On the other hand, as a result of using the compound obtained in Example 248 as the test compound, the evaluation was A in all cancer cells.

[6] = tested on: SU-DHL-4 (blood cancer (lymphoma)); test: Antitumor activity: growth inhibition of SU-DHL-4; conditions: Homo sapiens, 120 h; SU-DHL-4, culturing for 5 days; read-out: 50% growth inhibitory concentration
Procedure: as §4

A549 (lung cancer) = test: Antitumor activity: growth inhibition of A549; conditions: Homo sapiens, 120 h; A549, culturing for 5 days; read-out: 50% growth inhibitory concentration
Procedure: as §4

Daoy (brain tumor) = test: Antitumor activity: growth inhibition of Daoy; conditions: Homo sapiens, 120 h, culturing for 5 days, read-out: 50% growth inhibitory concentration
Procedure: as §4

Compound | IC50 (IL-17A [1]) [µM] | IC50 (IL-13 [2]) [µM] | IC50 (TNFα) [µM] | IC50 (IL-17A [3]) [µM] | IC50 (IL-13 [4]) [µM] | IC50 [5] [µM] | IC50 [6] [µM] | IC50 (A549 (lung cancer)) [µM] | IC50 (Daoy (brain tumor)) [µM]
CC(C)(O)C(F)(F)Oc1ccc(-c2nccs2)c2oc(N3CC4CC(C3)N4)nc12 [Example 248, 1-((2-(3,6-Diazabicyclo[3.1.1]heptan-3-yl)-7-(thiazol-2-yl)benzo[d]oxazol-4-yl)oxy)-1,1-difluoro-2-methylpropan-2-ol] | < 0.5 | < 0.5 | < 0.01 | < 0.5 | < 0.5 | < 10 | < 10 | < 10 | < 10
CCOc1cc([C@@H](CS(C)(=O)=O)N2C(=O)c3cccc(NC(C)=O)c3C2=O)ccc1OC [apremilast, reference compound] | 0.5 to 5 | ≥ 5 | > 0.1 | 0.5 to 5 | 0.5 to 5 | ≥ 50 | ≥ 50 | ≥ 50 | ≥ 50
